Results: US20160193206A1, “BET-PROTEIN-INHIBITING DIHYDROPYRIDOPYRAZINONES” (BAYER PHARMA AKTIENGESELLSCHAFT, priority 2012, published 2016)

Legend:
[1] = system: MOLM-13 cell line; test: MOLM-13 cell proliferation assay (alamarBlue); format: cell-based; conditions: Homo sapiens, inhibition of proliferation of MOLM-13 cells (acute myeloid leukaemia), 96 hours incubation
Method in brief: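 MOLM-13 (human AML) cells were treated with compound dilutions for 96 h at 37 °C after overnight plating, and viability was read by alamarBlue fluorescence (ex 530/em 590 nm). Pre-treatment readings were subtracted from end-point readings, and IC50 was calculated relative to buffer-only controls.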

[2] = target: T1, BRD4 bromo domain 2 [BRD4(2)] (Homo sapiens, UniProt O60885); test: BRD4(2)/acetylated peptide H4 binding assay (TR-FRET); conditions: inhibition of interaction between His6-tagged BRD4(2) (amino acids 357-445) and acetylated histone H4 peptide
T1 construct: N-terminally His6-tagged BRD4(2) (amino acids 357-445); made in house; host or cells: E. coli
Method in brief: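 TR-FRET displacement of biotinylated tetra-acetylated H4 peptide from His6-BRD4(2) (aa 357-445, E. coli-expressed), 100 nM final, in HEPES pH 7.5 buffer; 11 compound concentrations 0.1 nM-20 μM, 10 min preincubation, then 1 h 22 °C plus ≥3 h 4 °C. 665/620 ratio read; IC50 by 4-parameter fit.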

[3] = target: T2, BRD4 bromo domain 1 [BRD4(1)] (Homo sapiens, UniProt O60885); test: BRD4(1)/acetylated peptide H4 binding assay (TR-FRET); conditions: inhibition of interaction between His6-tagged BRD4(1) (amino acids 67-152) and acetylated histone H4 peptide
T2 construct: N-terminally His6-tagged BRD4(1) (amino acids 67-152); made in house; host or cells: E. coli
Method in brief: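 TR-FRET measured displacement of a biotinylated tetra-acetylated H4 peptide from His6-BRD4(1) (aa 67-152, E. coli-expressed, typically 10 nM) in HEPES pH 7.5 buffer. Compounds were tested at 11 concentrations (0.1 nM–20 μM), with 10 min preincubation, then 1 h at 22 °C and ≥3 h at 4 °C. The 665/620 nm ratio gave IC50 by 4-parameter fit.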

IC50 [1] [nM] | IC50 [2] [nM] | IC50 [3] [nM] | Compound
548 | 310 | 263 | C[C@@H]1C(=O)N(C)c2ccc(Nc3ccc(C(=O)N[C@H]4CC[C@H](N5CCN(CC6CC6)CC5)CC4)cc3)nc2N1C1CCCCC1 [Example 68, 4-{[(3R)-4-Cyclohexyl-1,3-dimethyl-2-oxo-1,2,3,4-tetrahydropyrido[2,3-b]pyrazin-6-yl]amino}-N-{trans-4-[4-(cyclopropylmethyl)piperazin-1-yl]cyclohexyl}benzamide]
358 | 89 | 164 | C[C@@H]1C(=O)N(C)c2ccc(Nc3ccc(C(=O)N4CC5(COC5)C4)cc3)nc2N1C1CCCCC1 [Example 69, (3R)-4-Cyclohexyl-1,3-dimethyl-6-{[4-(2-oxa-6-azaspiro[3.3]hept-6-ylcarbonyl)phenyl]amino}-3,4-dihydropyrido[2,3-b]pyrazin-2(1H)-one]
233 | 120 | 239 | COc1cc(C(=O)N[C@H]2CC[C@H](N3CCN(CC4CC4)CC3)CC2)ccc1Nc1ccc2c(n1)N(C1CCCCC1)[C@H](C)C(=O)N2C [Example 70, 4-{[(3R)-4-Cyclohexyl-1,3-dimethyl-2-oxo-1,2,3,4-tetrahydropyrido[2,3-b]pyrazin-6-yl]amino}-N-{trans-4-[4-(cyclopropylmethyl)piperazin-1-yl]cyclohexyl}-3-methoxybenzamide]
254 | 118 | 131 | COc1cc(C(=O)NC2CN(C)C2)ccc1Nc1ccc2c(n1)N(C1CCCCC1)[C@H](C)C(=O)N2C [Example 72, 4-{[(3R)-4-Cyclohexyl-1,3-dimethyl-2-oxo-1,2,3,4-tetrahydropyrido[2,3-b]pyrazin-6-yl]amino}-3-methoxy-N-(1-methylazetidin-3-yl)benzamide]
350 | 82 | 149 | C[C@@H]1C(=O)N(C)c2ccc(Nc3ccc(C(=O)N4CC5(CCS5(=O)=O)C4)cc3)nc2N1Cc1ccccc1 [Example 75, (3R)-4-Benzyl-6-({4-[(1,1-dioxido-1-thia-6-azaspiro[3.3]hept-6-yl)carbonyl]phenyl}amino)-1,3-dimethyl-3,4-dihydropyrido[2,3-b]pyrazin-2(1H)-one]
242 | 103 | 55 | COc1cc(C(=O)NC2CCN(C(C)=O)CC2)ccc1Nc1ccc2c(n1)N(Cc1ccccc1)[C@H](C)C(=O)N2C [Example 77, N-(1-Acetylpiperidin-4-yl)-4-{[(3R)-4-benzyl-1,3-dimethyl-2-oxo-1,2,3,4-tetrahydropyrido[2,3-b]pyrazin-6-yl]amino}-3-methoxybenzamide]
243 | 111 | 153 | CC(=O)N1CCC(NC(=O)c2ccc(Nc3ccc4c(n3)N(Cc3ccccc3)[C@H](C)C(=O)N4C)cc2)CC1 [Example 78, N-(1-Acetylpiperidin-4-yl)-4-{[(3R)-4-benzyl-1,3-dimethyl-2-oxo-1,2,3,4-tetrahydropyrido[2,3-b]pyrazin-6-yl]amino}benzamide]
282 | 51 | 120 | COc1cc(C(=O)NC2CCC(O)CC2)ccc1Nc1ccc2c(n1)N(Cc1ccccc1)[C@H](C)C(=O)N2C (stereo partly drawn) [Example 79, 4-{[(3R)-4-Benzyl-1,3-dimethyl-2-oxo-1,2,3,4-tetrahydropyrido[2,3-b]pyrazin-6-yl]amino}-N-(4-hydroxycyclohexyl)-3-methoxybenzamide]
170 | 138 | 137 | COc1cc(C(=O)N2CCN(C(C)C)CC2)ccc1Nc1ccc2c(n1)N(Cc1ccccc1)[C@H](C)C(=O)N2C [Example 80, (3R)-4-Benzyl-6-[(2-methoxy-4-{[4-(propan-2-yl)piperazin-1-yl]carbonyl}phenyl)amino]-1,3-dimethyl-3,4-dihydro pyrido[2,3-b]pyrazin-2(1H)-one]
96 | 23 | 89 | C[C@@H]1C(=O)N(C)c2ccc(Nc3ccc(C(=O)NCCN4CCN(C)CC4)cc3)nc2N1Cc1ccccc1 [Example 81, 4-{[(3R)-4-Benzyl-1,3-dimethyl-2-oxo-1,2,3,4-tetrahydropyrido[2,3-b]pyrazin-6-yl]amino}-N-[2-(4-methylpiperazin-1-yl)ethyl]benzamide]
131 | 48 | 40 | COc1cc(C(=O)NCCN2CCN(C)CC2)ccc1Nc1ccc2c(n1)N(Cc1ccccc1)[C@H](C)C(=O)N2C [Example 82, 4-{[(3R)-4-Benzyl-1,3-dimethyl-2-oxo-1,2,3,4-tetrahydropyrido[2,3-b]pyrazin-6-yl]amino}-3-methoxy-N-[2-(4-methylpiperazin-1-yl)ethyl]benzamide]
122 | 61 | 133 | COc1cc(C(=O)N2CC3(COC3)C2)ccc1Nc1ccc2c(n1)N(Cc1ccccc1)[C@H](C)C(=O)N2C [Example 83, (3R)-4-Benzyl-6-{[2-methoxy-4-(2-oxa-6-azaspiro[3.3]hept-6-ylcarbonyl)phenyl]amino}-1,3-dimethyl-3,4-dihydropyrido[2,3-b]pyrazin-2(1H)-one]
353 | 135 | 154 | COc1cc(C(=O)NCCN2CCN(C)CC2)ccc1Nc1ccc2c(n1)N(C1CCCCCC1)[C@H](C)C(=O)N2C [Example 91, 4-{[(3R)-4-Cycloheptyl-1,3-dimethyl-2-oxo-1,2,3,4-tetrahydropyrido[2,3-b]pyrazin-6-yl]amino}-3-methoxy-N-[2-(4-methylpiperazin-1-yl)ethyl]benzamide]
316 | 104 | 145 | CC(C)N1c2nc(Nc3ccc(S(=O)(=O)N4CCN(C)CC4)cc3)ccc2N(C)C(=O)[C@H]1C [Example 99, (3R)-1,3-Dimethyl-6-({4-[(4-methylpiperazin-1-yl)sulphonyl]phenyl}amino)-4-(propan-2-yl)-3,4-dihydropyrido[2,3-b]pyrazin-2(1H)-one]
336 | 71 | 156 | CC(C)N1c2nc(Nc3ccc(S(=O)(=O)N(C)C)cc3)ccc2N(C)C(=O)[C@H]1C [Example 100, 4-{[(3R)-1,3-Dimethyl-2-oxo-4-(propan-2-yl)-1,2,3,4-tetrahydropyrido[2,3-b]pyrazin-6-yl]amino}-N,N-dimethylbenzenesulphon-amide]
226 | 105 | 134 | CC(C)N1c2nc(Nc3ccc(S(=O)(=O)N4CCOCC4)cc3)ccc2N(C)C(=O)[C@H]1C [Example 101, (3R)-1,3-Dimethyl-6-{[4-(morpholin-4-ylsulphonyl)phenyl]amino}-4-(propan-2-yl)-3,4-dihydropyrido[2,3-b]pyrazin-2(1H)-one]
214 | 90 | 100 | CC(C)N1CCN(S(=O)(=O)c2ccc(Nc3ccc4c(n3)N(C3CCCC3)[C@H](C)C(=O)N4C)cc2)CC1 [Example 102, (3R)-4-Cyclopentyl-1,3-dimethyl-6-[(4-{[4-(propan-2-yl)piperazin-1-yl]sulphonyl}phenyl)amino]-3,4-dihydropyrido[2,3-b]pyrazin-2(1H)-one]
177 | 51 | 78 | C[C@@H]1C(=O)N(C)c2ccc(Nc3ccc(S(=O)(=O)N(C)C)cc3)nc2N1C1CCCC1 [Example 103, 4-{[(3R)-4-Cyclopentyl-1,3-dimethyl-2-oxo-1,2,3,4-tetrahydropyrido[2,3-b]pyrazin-6-yl]amino}-N,N-dimethylbenzenesulphonamide]
255 | 241 | 201 | CC1C(=O)N(C)c2ccc(Nc3ccc(S(=O)(=O)NC4CCN(C)CC4)cc3)nc2N1c1ccccc1 (stereo not drawn) [Example 107, 4-[(1,3-Dimethyl-2-oxo-4-phenyl-1,2,3,4-tetrahydropyrido[2,3-b]pyrazin-6-yl)amino]-N-(1-methylpiperidin-4-yl)benzenesulphonamide]
